According to ChEMBL document CHEMBL4808211, “Exploration and Biological Evaluation of Basic Heteromonocyclic Propanamide Derivatives as SARDs for the Treatment of Enzalutamide-Resistant Prostate Cancer” (J Med Chem, 2021):

System: MR49F
Assay: animal or person
Settings: Mus musculus, po, 672 h, read-out: TGI
Description: Antitumor activity against human MR49F cells xenografted in NOD SCID NSG mouse assessed as tumor growth inhibition at 60 mg/kg/day, po measured twice weekly for 28 days relative to control

Molecule `C[C@](O)(Cn1cc(-c2ccc(F)cc2)nn1)C(=O)Nc1ccc(C#N)c(C(F)(F)F)c1` has an inhibition in vivo at 60 mg/kg/day of 95%.
